In patent US20240279602A1, “METHOD FOR PRODUCING CEREBRAL CORTICAL CELL PREPARATION DERIVED FROM HUMAN PLURIPOTENT STEM CELLS” (Kyoto University, priority 2021, published 2024):

Assays:
cerebral organoids [1] = assay: Flow cytometry of marker expression after DAPT treatment; format: cell-based, human
Method: Cerebral organoids, cerebral cortical cell aggregates, and high-purity cerebral cortical cell aggregates were dispersed into single cells by using dispersing solution for neural cells (FUJIFILM Wako Pure Chemical Corporation), fixed by using Fixation Buffer (BD Biosciences) at 4° C. for 30 minutes, then treated with Perm/Wash buffer (BD Biosciences) at room temperature for 15 minutes, subjected to double or triple staining, and analyzed by using an Aria III. The analysis software used was FACSDiva software (BD). The primary antibodies and secondary antibodies used are shown in the following. • PerCP-Cy5.5 Mouse IgGI k isotype control: 550795 (BD Biosciences) Alexa 647 Mouse Anti-human Oct3/4 antigen: 560329 (BD Biosciences) • Tra-2-49/6E-FITC antibody: FCMAB133F (Merck) • Alexa647 mouse anti β-tubulin Class III: 560394 (BD) • PerCP-Cy5.5 Mouse anti-Human Sox1: 561549 (BD) • Alexa647 mouse anti-Human Pax6: 561165(BD) • Alexa488 mouse anti-Ki67: 562249 (BD) • Alexa488 rat anti-Ctip2 antibody: ab123449 (Abcam)
Next, cell aggregates immediately after DAPT treatment (immediately after the completion of step (ii)) were analyzed for the proportions of constituent cells by means of flow cytometry. Cerebral organoids on Day 40 were subjected to DAPT treatment for 3 days, and expressions of marker genes were then analyzed by flow cytometry.
Furthermore, iPS cells on Day 0 (undifferentiated iPS cells), organoids not subjected to DAPT treatment (Ctrl, without step (ii)), organoids subjected to DAPT treatment for 3 days (Day 40 to 43) (DAPT 3d, with step (ii)), and organoids subjected to DAPT treatment for 3 days and subsequently cultured again, as cell aggregates without being dispersed into cells, with a culture medium removed of DAPT for 4 days (DAPT 3d+Release 4d, with step (ii) and step (iv), and without step (iii)) were analyzed by flow cytometry; the results are shown in FIG. 15.
Culture was performed in the same manner as the scheme in FIG. 3 as in Example 1 from −Day 7 to Day 35. A culture medium obtained by adding 5 μM SB431542 to StemFit culture medium without solution C(=bFGF-free culture medium) was used in step (1) in the case of “with preparation for neural differentiation” (with step (1)), and StemFit culture medium was used in the case of “without preparation for neural differentiation” (without step (1)). Thereafter, cerebral cortical cell aggregates were induced by the method described for step (ii) in Example 4, and evaluated by immunostaining. In addition, high-density cerebral cortical cell aggregates were induced by dispersing into single cells and then reaggregating the single cells by the method described for step (iii) and step (iv) in Example 4, and analyzed by flow cytometry.
In the “single-cell DAPT method (DAPT treatment is performed in step (iv))” in FIG. 24(B), cerebral organoids were screened on day 38 after the initiation of induction of differentiation and dispersed into single cells by the method described for step (iii) in Example 4, and the cells were then suspended in a culture medium obtained by adding 10 ng/mL GDNF, 20 ng/mL BDNF, 200 μM ascorbic acid, 400 μM dibutyryl-cAMP, and 30 μM Y-27632 to the culture medium in step (2b) with addition of DAPT at a concentration of 0 μM, 0.1 μM, 1 μM, or 10 μM. Subsequently, the cells were regathered by the method described for step (iv) in Example 4 in the presence of DAPT, and cultured for 1 day, 2 days, or 3 days. Thereafter, the culture medium was switched to a culture medium obtained by adding 10 ng/mL GDNF, 20 ng/mL BDNF, 200 μM ascorbic acid, and 400 μM dibutyryl-cAMP to the culture medium in step (2b), and culture was continued until day 10 after the initiation of reaggregation. The cells on day 3, day 4, or day 10 after the initiation of reaggregation were analyzed by RT-qPCR, and the cells on day 10 were analyzed by flow cytometry; the results are shown in FIGS. 25 to 27. […]

cerebral organoids [2] = assay: Single-cell gene expression analysis of Rosettes organoids with or without DAPT; format: cell-based, human; settings: Rosettes organoids treated with DAPT for 3 days (DAPT+)
Method: First, to prepare a single-cell suspension from an organoid, the organoid was separated into single cells with dispersing solution for neural cells (FUJIFILM Wako Pure Chemical Corporation) under recommended conditions. The dispersed cells were resuspended in HBSS supplemented with 10% (v/v) KSR and 10 μM Y-27632 (FUJIFILM Wako Pure Chemical Corporation) at a density of 1,000 cells/μL. Into a Chromium Next GEM Chip G (2000177 10X Genomics, Inc.), approximately 4,670 cells were loaded per channel, and treated with a Chromium controller to acquire Gel Beads-in-Emulsion (GEM). Libraries were produced by using Chromium Next GEM Single Cell 3′ Reagent Kits v3.1 (1000121; 10X Genomics, Inc.) in accordance with a protocol from the manufacturer (CG000204 Rev C). The sequences of the libraries were analyzed with Novaseq 6000 (Illumina, Inc.).
Cell Ranger pipeline was used for mapping of sequences in single-cell RNA-seq. GRCh38 human genome sequences were used as reference genome sequences. UMI count values acquired through analysis with a next-generation sequencer were analyzed by using Seurat R package. First, data of organoids were normalized by a Log-Normalize method, and then all the data of organoids were integrated. […]

[3] = DAPT 3d+Release 4d: DAPT 3 days, then 4 days in medium removed of DAPT, without dispersion
[4] = single-cell DAPT method (step (iv)), DAPT raised from 0 μM to 10 μM, 3 days treatment, 10 days culture
[5] = week 5 organoids dispersed, 10 μM DAPT 3 days, then DAPT-free culture to 4 days vs 14 days
[6] = without preparation for neural differentiation (without step (1)), DAPT treatment, dispersion and reaggregation

## C[C@H](NC(=O)Cc1cc(F)cc(F)c1)C(=O)N[C@H](C(=O)OC(C)(C)C)c1ccccc1 [DAPT, N-[N-(3,5-difluorophenacetyl)-L-alanyl]-S-phenylglycine t-butyl ester]
Cerebral organoids [1]; [3]
  proportion of Ki67/Sox1/Pax6-triple-positive cells: 0%
  proportion of cells co-positive for Ctip2 and βIII-tubulin: 87.4%
Cerebral organoids [1]; cerebral organoids on Day 40, DAPT treatment for 3 days (DAPT 3d)
  proportion of Pax6-positive/Sox1-positive/Ki67-positive cells (proliferative cells): 0.01%
Cerebral organoids [1]; cerebral organoids on Day 40, DAPT treatment for 3 days (DAPT 3d), all viable cells
  proportion of Ctip2/βIII-tubulin-double-positive cells: 86.1%
Cerebral organoids [1]; cerebral organoids on Day 40, DAPT treatment for 3 days, all viable cells
  proportion of Pax6/Ki67-double-positive neural stem cells (radial glia): 1.5%
Cerebral organoids [1]; organoids under any of the conditions (DAPT 3d, DAPT 3d+Release 4d)
  cells with co-expression of Tra2-49/6E and Oct4 (undifferentiated iPS cell indicator): not detected
Cerebral organoids [1]; [4]
  proportion of Ctip2/βTubIII (Tuj1)-double-positive cells: 89.6%
  proportion of Pax6-positive/Sox1-positive/Ki67-positive cells (proliferative cells): 0.8%
Cerebral organoids [1]; [5]
  proportion of Ctip2/Tuj1-co-positive cells: increase
  proportion of Pax6/Ki67-double-positive cells and of Pax6/Ki67/Sox1-triple-positive cells: decreased as the culture period after DAPT treatment was extended
Cerebral organoids [1]; [6]
  proportion of Ctip2/βTubIII-double-positive cells: 85.9%
  proportion of Pax6-positive/Sox1-positive/Ki67-positive cells (proliferative cells): 0%
  proportion of Pax6/Ki67-double-positive neural stem cells (radial glia): 1.9%
Cerebral organoids [2]
  cell population with expression of Pax6 and MKI67: largely shrunk
